Here are results for one compound from patent publication EP0427078A1, “Folinic acid-cyclodextrin inclusion compound” (MAGIS FARMACEUTICI S.p.A., priority 1989, dated 1991).

The format of data set [1] is physicochemical.
Data set [2] is described as follows: Acute toxicity (LD50) in the mouse. The settings on record: in vivo, read-out: LD₅₀.

Take `Nc1nc(=O)c2c([nH]1)NCC(CNc1ccc(C(=O)NC(CCC(=O)O)C(=O)O)cc1)N2C=O` (stereo not shown) [Calcium folinate, calcium folinate]: in data set [1], the “STABILITY AT pH 2 MICROBIOLOGICAL TITRE AFTER 3 MONTHS” value is on record as 40%, the “STABILITY AT pH 2 MICROBIOLOGICAL TITRE AFTER 6 MONTHS” value was found to be 20% and the “STABILITY AT pH 2 MICROBIOLOGICAL TITRE TIME 0” value is on record as 100%. The LD50 in data set [2] is over 7000 mg/kg.
